# Data: PubChem BioAssay (NCI)
#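 1) Cells in 96-well plates. 2) Compound, 48 h, 5 concentrations. 3) Linear interpolation between surrounding doses. 4) Unreached endpoint = highest concentration. TGI denotes the concentration required for complete inhibition of growth.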
# Columns and labels:
# Experiment in all cases: NCI-60 cell line screen, 48 h
# LOX IMVI melanoma = system: LOX IMVI melanoma
# OVCAR-5 ovarian = system: OVCAR-5 ovarian
# HT29 colon = system: HT29 colon
# SNB-19 CNS = system: SNB-19 CNS
# IGROV1 ovarian = system: IGROV1 ovarian
# HCT-116 colon = system: HCT-116 colon
# HL-60(TB) leukemia = system: HL-60(TB) leukemia
# RPMI-8226 leukemia = system: RPMI-8226 leukemia
# TK-10 renal = system: TK-10 renal
# SF-539 CNS = system: SF-539 CNS
# SF-295 CNS = system: SF-295 CNS
# ACHN renal = system: ACHN renal
# SK-MEL-28 melanoma = system: SK-MEL-28 melanoma
# SW-620 colon = system: SW-620 colon
# K-562 leukemia = system: K-562 leukemia
# MOLT-4 leukemia = system: MOLT-4 leukemia
# UACC-62 melanoma = system: UACC-62 melanoma
# SNB-75 CNS = system: SNB-75 CNS
# SNB-78 CNS = system: SNB-78 CNS
# EKVX NSCLC = system: EKVX NSCLC
# RXF-631 renal = system: RXF-631 renal
# OVCAR-4 ovarian = system: OVCAR-4 ovarian
# CCRF-CEM leukemia = system: CCRF-CEM leukemia
# DLD-1 colon = system: DLD-1 colon
# OVCAR-3 ovarian = system: OVCAR-3 ovarian
# A498 renal = system: A498 renal
# SF-268 CNS = system: SF-268 CNS
# SN12C renal = system: SN12C renal
# DMS 114 small cell lung = system: DMS 114 small cell lung
# NCI-H226 lung = system: NCI-H226 lung
# M14 melanoma = system: M14 melanoma
# UO-31 renal = system: UO-31 renal
# CAKI-1 renal = system: CAKI-1 renal
# SK-MEL-5 melanoma = system: SK-MEL-5 melanoma
# HOP-92 NSCLC = system: HOP-92 NSCLC
# MALME-3M melanoma = system: MALME-3M melanoma
# 786-0 renal = system: 786-0 renal
# U251 CNS = system: U251 CNS
# NCI-H23 lung = system: NCI-H23 lung
# KM20L2 colon = system: KM20L2 colon
# SR leukemia = system: SR leukemia
# SK-MEL-2 melanoma = system: SK-MEL-2 melanoma
# M19-MEL melanoma = system: M19-MEL melanoma
# XF 498 CNS = system: XF 498 CNS
# NCI-H460 lung = system: NCI-H460 lung
# HCC-2998 colon = system: HCC-2998 colon
# A549 NSCLC = system: A549 NSCLC
# UACC-257 melanoma = system: UACC-257 melanoma
# HCT-15 colon = system: HCT-15 colon
# LXFL 529 NSCLC = system: LXFL 529 NSCLC
# RXF 393 renal = system: RXF 393 renal
# OVCAR-8 ovarian = system: OVCAR-8 ovarian
# NCI-H522 lung = system: NCI-H522 lung
# SK-OV-3 ovarian = system: SK-OV-3 ovarian
# KM12 colon = system: KM12 colon
# HOP-18 NSCLC = system: HOP-18 NSCLC
# COLO 205 colon = system: COLO 205 colon
# HOP-62 NSCLC = system: HOP-62 NSCLC
# DMS 273 small cell lung = system: DMS 273 small cell lung
smiles,measurement,setting,value
O=C(CC1C(=O)Nc2ccccc2S1(=O)=O)Nc1cc(Cl)ccc1Cl (stereo not given),TGI,LOX IMVI melanoma,18.1 µM
same,TGI,OVCAR-5 ovarian,71.1 µM
same,TGI,HT29 colon,34.3 µM
same,TGI,SNB-19 CNS,29.8 µM
same,TGI,IGROV1 ovarian,26.9 µM
same,TGI,HCT-116 colon,28 µM
same,TGI,HL-60(TB) leukemia,35.3 µM
same,TGI,RPMI-8226 leukemia,13.4 µM
same,TGI,TK-10 renal,39.9 µM
same,TGI,SF-539 CNS,7.23 µM
same,TGI,SF-295 CNS,34.4 µM
same,TGI,ACHN renal,35.7 µM
same,TGI,SK-MEL-28 melanoma,41 µM
same,TGI,SW-620 colon,40.2 µM
same,TGI,K-562 leukemia,42 µM
same,TGI,MOLT-4 leukemia,23.2 µM
same,TGI,UACC-62 melanoma,33.7 µM
same,TGI,SNB-75 CNS,31 µM
same,TGI,SNB-78 CNS,33.6 µM
same,TGI,EKVX NSCLC,30 µM
same,TGI,RXF-631 renal,88.9 µM
same,TGI,OVCAR-4 ovarian,32.8 µM
same,TGI,CCRF-CEM leukemia,62.5 µM
same,TGI,DLD-1 colon,33.4 µM
same,TGI,OVCAR-3 ovarian,29 µM
same,TGI,A498 renal,31.4 µM
same,TGI,SF-268 CNS,24.4 µM
same,TGI,SN12C renal,30.2 µM
same,TGI,DMS 114 small cell lung,27 µM
same,TGI,NCI-H226 lung,35.8 µM
same,TGI,M14 melanoma,30.6 µM
same,TGI,UO-31 renal,31 µM
same,TGI,CAKI-1 renal,32 µM
same,TGI,SK-MEL-5 melanoma,30.3 µM
same,TGI,HOP-92 NSCLC,30.4 µM
same,TGI,MALME-3M melanoma,40.6 µM
same,TGI,786-0 renal,20.7 µM
same,TGI,U251 CNS,22.6 µM
same,TGI,NCI-H23 lung,40.4 µM
same,TGI,KM20L2 colon,32.6 µM
same,TGI,SR leukemia,24.3 µM
same,TGI,SK-MEL-2 melanoma,35.4 µM
same,TGI,M19-MEL melanoma,34.1 µM
same,TGI,XF 498 CNS,27.6 µM
same,TGI,NCI-H460 lung,30.3 µM
same,TGI,HCC-2998 colon,36.2 µM
same,TGI,A549 NSCLC,33.1 µM
same,TGI,UACC-257 melanoma,> 100 µM
same,TGI,HCT-15 colon,27.5 µM
same,TGI,LXFL 529 NSCLC,27.1 µM
same,TGI,RXF 393 renal,32.7 µM
same,TGI,OVCAR-8 ovarian,41.9 µM
CC(C)C(N=c1c2ccccc2n(O)c2ccccc12)C(=O)O (stereo not given),TGI,LOX IMVI melanoma,> 100 µM
same,TGI,OVCAR-5 ovarian,> 100 µM
same,TGI,HT29 colon,> 100 µM
same,TGI,SNB-19 CNS,> 100 µM
same,TGI,IGROV1 ovarian,> 100 µM
same,TGI,HCT-116 colon,> 100 µM
same,TGI,HL-60(TB) leukemia,> 100 µM
same,TGI,RPMI-8226 leukemia,> 100 µM
same,TGI,TK-10 renal,> 100 µM
same,TGI,NCI-H522 lung,> 100 µM
same,TGI,SF-295 CNS,> 100 µM
same,TGI,ACHN renal,> 100 µM
same,TGI,SK-OV-3 ovarian,> 100 µM
same,TGI,SK-MEL-28 melanoma,> 100 µM
same,TGI,SW-620 colon,> 100 µM
same,TGI,K-562 leukemia,> 100 µM
same,TGI,UACC-62 melanoma,> 100 µM
same,TGI,SNB-75 CNS,> 100 µM
same,TGI,SNB-78 CNS,> 100 µM
same,TGI,EKVX NSCLC,> 100 µM
same,TGI,RXF-631 renal,> 100 µM
same,TGI,OVCAR-4 ovarian,> 100 µM
same,TGI,CCRF-CEM leukemia,> 100 µM
same,TGI,DLD-1 colon,> 100 µM
same,TGI,OVCAR-3 ovarian,> 100 µM
same,TGI,A498 renal,> 100 µM
same,TGI,SF-268 CNS,> 100 µM
same,TGI,KM12 colon,> 100 µM
same,TGI,SN12C renal,> 100 µM
same,TGI,DMS 114 small cell lung,> 100 µM
same,TGI,NCI-H226 lung,> 100 µM
same,TGI,HOP-18 NSCLC,> 100 µM
same,TGI,M14 melanoma,> 100 µM
same,TGI,UO-31 renal,> 100 µM
same,TGI,CAKI-1 renal,> 100 µM
same,TGI,SK-MEL-5 melanoma,> 100 µM
same,TGI,MALME-3M melanoma,> 100 µM
same,TGI,786-0 renal,> 100 µM
same,TGI,U251 CNS,> 100 µM
same,TGI,NCI-H23 lung,> 100 µM
same,TGI,KM20L2 colon,> 100 µM
same,TGI,SK-MEL-2 melanoma,> 100 µM
same,TGI,COLO 205 colon,> 100 µM
same,TGI,M19-MEL melanoma,> 100 µM
same,TGI,NCI-H460 lung,> 100 µM
same,TGI,HOP-62 NSCLC,> 100 µM
same,TGI,DMS 273 small cell lung,> 100 µM
same,TGI,HCC-2998 colon,> 100 µM
same,TGI,A549 NSCLC,> 100 µM
same,TGI,UACC-257 melanoma,> 100 µM
same,TGI,HCT-15 colon,> 100 µM
same,TGI,LXFL 529 NSCLC,> 100 µM
same,TGI,OVCAR-8 ovarian,> 100 µM
O=C(Cc1nc(-c2ccccc2)cc(=O)n1-c1ccccc1Cl)c1ccncc1,TGI,LOX IMVI melanoma,> 100 µM
same,TGI,OVCAR-5 ovarian,> 100 µM
same,TGI,HT29 colon,> 100 µM
same,TGI,SNB-19 CNS,> 100 µM
same,TGI,IGROV1 ovarian,> 100 µM
same,TGI,HCT-116 colon,> 100 µM
same,TGI,HL-60(TB) leukemia,> 100 µM
same,TGI,TK-10 renal,> 100 µM
same,TGI,NCI-H522 lung,> 100 µM
same,TGI,SF-539 CNS,> 100 µM
same,TGI,SF-295 CNS,> 100 µM
same,TGI,ACHN renal,> 100 µM
same,TGI,SK-OV-3 ovarian,> 100 µM
same,TGI,SK-MEL-28 melanoma,> 100 µM
same,TGI,SW-620 colon,> 100 µM
same,TGI,K-562 leukemia,> 100 µM
same,TGI,UACC-62 melanoma,> 100 µM
same,TGI,SNB-75 CNS,82.6 µM
same,TGI,SNB-78 CNS,> 100 µM
same,TGI,EKVX NSCLC,> 100 µM
same,TGI,RXF-631 renal,> 100 µM
same,TGI,OVCAR-4 ovarian,> 100 µM
same,TGI,CCRF-CEM leukemia,> 100 µM
same,TGI,DLD-1 colon,> 100 µM
same,TGI,OVCAR-3 ovarian,> 100 µM
same,TGI,A498 renal,> 100 µM
same,TGI,SF-268 CNS,> 100 µM
same,TGI,KM12 colon,> 100 µM
same,TGI,SN12C renal,> 100 µM
same,TGI,DMS 114 small cell lung,> 100 µM
same,TGI,NCI-H226 lung,> 100 µM
same,TGI,HOP-18 NSCLC,> 100 µM
same,TGI,M14 melanoma,> 100 µM
same,TGI,UO-31 renal,> 100 µM
same,TGI,CAKI-1 renal,> 100 µM
same,TGI,SK-MEL-5 melanoma,> 100 µM
same,TGI,HOP-92 NSCLC,> 100 µM
same,TGI,MALME-3M melanoma,> 100 µM
same,TGI,786-0 renal,> 100 µM
same,TGI,U251 CNS,> 100 µM
same,TGI,NCI-H23 lung,> 100 µM
same,TGI,KM20L2 colon,> 100 µM
same,TGI,SK-MEL-2 melanoma,> 100 µM
same,TGI,COLO 205 colon,> 100 µM
same,TGI,M19-MEL melanoma,> 100 µM
same,TGI,NCI-H460 lung,> 100 µM
same,TGI,HOP-62 NSCLC,> 100 µM
same,TGI,DMS 273 small cell lung,> 100 µM
same,TGI,HCC-2998 colon,> 100 µM
same,TGI,A549 NSCLC,> 100 µM
same,TGI,UACC-257 melanoma,> 100 µM
same,TGI,HCT-15 colon,> 100 µM
same,TGI,LXFL 529 NSCLC,> 100 µM
same,TGI,RXF 393 renal,> 100 µM
same,TGI,OVCAR-8 ovarian,> 100 µM
